Measured values from paper PMC11461180, “Interaction with IP6K1 supports pyrophosphorylation of substrate proteins by the inositol pyrophosphate 5-InsP7” (Bioscience Reports, 2024).

Experiments:
[1] = molecular target: T1, Casein Kinase II (CK2 holoenzyme) (Homo sapiens, UniProt P68400); test: [γ-32P]ATP phosphorylation of immunoprecipitated myc-AP3B1, autoradiography; type: biochemical; details: 15 µM TBCA preincubated 30 min on ice; 500 µM Mg-ATP; enzyme form (holoenzyme or GST-CK2α) not told for the TBCA lanes
T1 construct: gene CSNK2A1; commercial recombinant holoenzyme, heterotetramer; with Casein kinase II subunit beta

[2] = molecular target: T2, AP3B1 (myc-tagged) (Homo sapiens, UniProt O00203); test: pyrophosphorylation of immunoprecipitated protein, phosphorimager; type: biochemical; details: labelled compound; β-phosphate donor, covalent transfer to pSer of the protein, enzyme-independent; 6 mM MgCl2, pH 7.4, 37 °C, 15 min
T2 construct: full-length, N-terminal myc tag, expressed in HEK293T cells, immunoprecipitated on protein G-sepharose beads
T2 sequence (O00203 1-1094): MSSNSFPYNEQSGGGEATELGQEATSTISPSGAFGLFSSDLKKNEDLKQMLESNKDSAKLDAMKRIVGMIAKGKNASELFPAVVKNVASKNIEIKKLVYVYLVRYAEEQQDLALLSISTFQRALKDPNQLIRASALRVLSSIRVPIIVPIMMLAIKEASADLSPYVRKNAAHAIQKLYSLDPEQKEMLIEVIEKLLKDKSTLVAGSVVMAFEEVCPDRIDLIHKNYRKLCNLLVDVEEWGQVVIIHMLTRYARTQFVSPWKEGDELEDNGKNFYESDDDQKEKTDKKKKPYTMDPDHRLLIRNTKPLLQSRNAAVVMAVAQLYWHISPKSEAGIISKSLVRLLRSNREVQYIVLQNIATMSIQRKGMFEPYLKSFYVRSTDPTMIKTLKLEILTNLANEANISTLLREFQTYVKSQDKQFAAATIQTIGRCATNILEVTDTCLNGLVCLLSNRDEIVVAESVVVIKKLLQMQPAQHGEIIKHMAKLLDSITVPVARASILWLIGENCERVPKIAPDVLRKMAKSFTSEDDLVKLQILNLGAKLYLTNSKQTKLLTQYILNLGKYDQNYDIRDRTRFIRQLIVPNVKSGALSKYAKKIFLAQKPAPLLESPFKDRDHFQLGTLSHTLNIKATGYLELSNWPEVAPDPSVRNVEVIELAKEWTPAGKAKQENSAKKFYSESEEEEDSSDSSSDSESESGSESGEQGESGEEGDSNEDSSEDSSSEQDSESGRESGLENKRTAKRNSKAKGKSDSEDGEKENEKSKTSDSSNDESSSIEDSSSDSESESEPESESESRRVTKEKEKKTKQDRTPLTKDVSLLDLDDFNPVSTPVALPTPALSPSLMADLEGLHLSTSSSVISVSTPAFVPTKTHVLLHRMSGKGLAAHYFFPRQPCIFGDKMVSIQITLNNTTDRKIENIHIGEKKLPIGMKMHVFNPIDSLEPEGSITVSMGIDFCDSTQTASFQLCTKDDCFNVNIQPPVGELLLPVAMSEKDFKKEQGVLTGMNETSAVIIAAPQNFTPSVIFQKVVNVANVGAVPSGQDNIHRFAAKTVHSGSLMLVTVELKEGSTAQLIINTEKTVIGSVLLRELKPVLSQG

T1 sequence (P68400 whole entry): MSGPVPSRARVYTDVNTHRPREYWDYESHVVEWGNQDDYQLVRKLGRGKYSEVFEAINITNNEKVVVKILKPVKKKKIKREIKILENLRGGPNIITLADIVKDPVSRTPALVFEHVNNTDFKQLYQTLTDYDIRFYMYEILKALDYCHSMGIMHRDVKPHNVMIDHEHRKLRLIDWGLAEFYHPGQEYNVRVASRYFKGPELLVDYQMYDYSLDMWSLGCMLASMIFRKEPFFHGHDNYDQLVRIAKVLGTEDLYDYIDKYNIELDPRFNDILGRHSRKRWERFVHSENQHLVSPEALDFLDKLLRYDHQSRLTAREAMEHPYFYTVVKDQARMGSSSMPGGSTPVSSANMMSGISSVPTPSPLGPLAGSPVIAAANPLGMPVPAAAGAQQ
T1 sequence (P67870 2-215 partner): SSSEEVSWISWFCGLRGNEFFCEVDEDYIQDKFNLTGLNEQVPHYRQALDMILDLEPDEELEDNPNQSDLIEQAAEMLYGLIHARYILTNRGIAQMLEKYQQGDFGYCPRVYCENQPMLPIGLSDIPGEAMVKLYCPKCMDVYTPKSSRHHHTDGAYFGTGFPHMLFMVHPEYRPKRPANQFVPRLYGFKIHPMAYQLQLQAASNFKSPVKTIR

O=C(O)/C=C/c1cc(Br)c(Br)c(Br)c1Br [TBCA]
phosphorylation lowered at 15 μM [1]: which was lowered when the CK2 inhibitor TBCA was added to the reaction

O=P(O)(O)O[C@H]1[C@@H](OP(=O)(O)O)[C@H](OP(=O)(O)O)[C@@H](OP(=O)(O)OP(=O)(O)O)[C@H](OP(=O)(O)O)[C@H]1OP(=O)(O)O [5-InsP7]
pyrophosphorylation of immunoprecipitated protein, phosphorimager [2]: AP3B1 over-expressed under these two conditions was immunoprecipitated and incubated with radiolabeled 5-InsP7
